Experiments:
NO synthase (NOS) = molecular target: T1, NO synthase (NOS) (Sus scrofa, UniProt Q28969); experiment: Endothelial L-citrulline formation (NOS activity in intact cells); type: cell-based, porcine; conditions: for Direct effect on NOS-catalyzed L-citrulline formation: 1 mM, absence of A23187 (S1 Fig)
T1 construct: endogenous in cells; host or cells: primary porcine aortic endothelial cells (up to 3 passages)
T1 sequence (Q28969 1-1205): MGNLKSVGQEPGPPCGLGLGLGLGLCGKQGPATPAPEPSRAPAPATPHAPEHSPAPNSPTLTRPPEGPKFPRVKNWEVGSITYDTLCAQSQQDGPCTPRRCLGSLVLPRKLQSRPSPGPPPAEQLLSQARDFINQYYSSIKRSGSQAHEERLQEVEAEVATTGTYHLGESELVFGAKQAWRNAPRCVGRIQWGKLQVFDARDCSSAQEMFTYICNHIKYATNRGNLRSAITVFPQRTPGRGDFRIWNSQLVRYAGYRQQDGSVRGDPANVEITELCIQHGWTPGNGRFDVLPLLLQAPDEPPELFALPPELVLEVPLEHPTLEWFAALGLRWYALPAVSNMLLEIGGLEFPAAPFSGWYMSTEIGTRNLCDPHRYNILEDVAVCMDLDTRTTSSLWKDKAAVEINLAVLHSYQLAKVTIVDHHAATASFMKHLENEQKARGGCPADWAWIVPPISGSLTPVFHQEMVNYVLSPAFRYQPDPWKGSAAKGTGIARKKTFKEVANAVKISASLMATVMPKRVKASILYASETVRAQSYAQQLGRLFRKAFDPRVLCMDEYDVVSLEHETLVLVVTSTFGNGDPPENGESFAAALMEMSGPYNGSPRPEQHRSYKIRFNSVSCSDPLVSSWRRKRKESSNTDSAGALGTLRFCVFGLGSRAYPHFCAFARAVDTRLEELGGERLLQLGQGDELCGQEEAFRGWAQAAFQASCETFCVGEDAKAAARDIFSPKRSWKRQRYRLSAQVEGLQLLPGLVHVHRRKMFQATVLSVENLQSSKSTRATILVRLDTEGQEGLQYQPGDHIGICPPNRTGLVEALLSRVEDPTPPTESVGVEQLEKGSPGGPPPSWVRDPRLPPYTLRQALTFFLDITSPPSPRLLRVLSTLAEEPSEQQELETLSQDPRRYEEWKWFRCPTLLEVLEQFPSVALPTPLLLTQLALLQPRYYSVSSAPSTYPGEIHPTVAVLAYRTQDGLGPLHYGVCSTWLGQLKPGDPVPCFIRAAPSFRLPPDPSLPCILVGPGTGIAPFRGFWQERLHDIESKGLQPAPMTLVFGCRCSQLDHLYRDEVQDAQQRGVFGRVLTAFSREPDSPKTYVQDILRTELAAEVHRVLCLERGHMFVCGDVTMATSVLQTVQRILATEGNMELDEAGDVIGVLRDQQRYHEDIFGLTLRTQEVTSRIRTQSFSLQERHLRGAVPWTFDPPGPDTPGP
Description: NO synthase (NOS) activity in intact cells was determined by monitoring the conversion of L-[^3H]arginine into L-[^3H]citrulline as previously described. […] Subsequent to lysis of the cells with 0.01 M HCl, an aliquot was removed for determination of incorporated radioactivity. To the remaining sample, 200 mM sodium acetate buffer ([…]) containing 10 mM L-citrulline was added (final pH ~5.0), and L-[^3H]citrulline was separated from L-[^3H]arginine by cation exchange chromatography.

[1] = molecular target: T2, soluble guanylate cyclase (sGC) (Bos taurus, UniProt P16068+P19687); experiment: Activity of purified sGC stimulated with DEA/NO; type: biochemical, bovine; conditions: for Emax of DEA/NO-stimulated sGC activity in presence of flavoring: flavoring 1 mM, DEA/NO 0.01–10 μM
T2 construct: The activity of sGC purified from bovine lung; from tissue; host or cells: bovine lung
T2 sequence (P19687 1-691): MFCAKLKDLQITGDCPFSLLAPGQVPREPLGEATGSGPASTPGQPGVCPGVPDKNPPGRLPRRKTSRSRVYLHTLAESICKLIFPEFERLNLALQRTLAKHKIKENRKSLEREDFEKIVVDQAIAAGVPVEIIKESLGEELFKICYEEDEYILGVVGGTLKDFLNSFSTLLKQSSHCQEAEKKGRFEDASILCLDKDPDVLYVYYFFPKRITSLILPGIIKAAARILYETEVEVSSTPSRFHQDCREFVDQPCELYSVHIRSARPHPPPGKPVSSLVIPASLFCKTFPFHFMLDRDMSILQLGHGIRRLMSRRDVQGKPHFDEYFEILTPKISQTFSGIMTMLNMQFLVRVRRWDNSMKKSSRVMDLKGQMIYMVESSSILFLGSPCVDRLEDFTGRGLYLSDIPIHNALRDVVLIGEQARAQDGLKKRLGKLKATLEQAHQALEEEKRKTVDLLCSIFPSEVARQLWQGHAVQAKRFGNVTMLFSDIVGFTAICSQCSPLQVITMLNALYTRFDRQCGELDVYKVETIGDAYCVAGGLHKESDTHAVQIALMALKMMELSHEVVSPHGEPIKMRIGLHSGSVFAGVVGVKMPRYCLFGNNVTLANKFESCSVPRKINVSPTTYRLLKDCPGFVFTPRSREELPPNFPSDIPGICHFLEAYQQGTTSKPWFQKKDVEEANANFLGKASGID
T2 sequence (P16068 1-619): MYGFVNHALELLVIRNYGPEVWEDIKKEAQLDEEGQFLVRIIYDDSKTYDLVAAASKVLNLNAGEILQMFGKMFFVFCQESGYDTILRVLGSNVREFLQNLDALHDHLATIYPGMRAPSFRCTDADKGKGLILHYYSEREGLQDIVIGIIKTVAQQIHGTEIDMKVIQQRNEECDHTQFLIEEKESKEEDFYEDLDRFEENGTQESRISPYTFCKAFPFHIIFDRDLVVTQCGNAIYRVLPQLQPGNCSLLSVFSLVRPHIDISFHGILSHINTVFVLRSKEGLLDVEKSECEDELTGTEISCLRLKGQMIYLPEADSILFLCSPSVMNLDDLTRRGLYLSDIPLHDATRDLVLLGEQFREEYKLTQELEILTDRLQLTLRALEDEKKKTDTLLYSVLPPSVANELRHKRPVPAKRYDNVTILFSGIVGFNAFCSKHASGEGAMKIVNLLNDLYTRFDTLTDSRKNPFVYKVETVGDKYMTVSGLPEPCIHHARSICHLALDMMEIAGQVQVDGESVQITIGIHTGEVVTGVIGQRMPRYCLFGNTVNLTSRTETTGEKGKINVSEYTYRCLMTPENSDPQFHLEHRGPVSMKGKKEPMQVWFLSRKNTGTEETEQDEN
Description: The activity of sGC purified from bovine lung was determined as formation of [^32P]cGMP from [α-^32P]GTP. The purified enzyme (50 ng) was incubated at 37°C for 10 min in a final volume of 0.1 ml in the absence or presence of flavorings with the NO donor DEA/NO at concentrations indicated in the figure legends, followed by isolation of [^32P]cGMP and quantification of radioactivity (Cerenkov radiation) in a β counter.
To test for reversibility of inhibition, sGC (50 ng) was preincubated in the absence or presence of the respective compounds for 5 minutes at 37°C, followed by 50-fold dilution in the assay mixtures and incubation with DEA/NO at 37°C for 10 minutes.

## O=C/C=C/c1ccccc1 [Cinnamaldehyde, (2E)-3-Phenylprop-2-enal]
NO synthase (NOS)
  Concentration inhibiting Ca2+-stimulated NO synthase activation: ≥ 0.3 mM
  Direct effect on NOS-catalyzed L-citrulline formation: neither eugenol nor cinnamaldehyde increased
NO synthase (NOS); 0.3 and 1.0 mM (Fig 2A)
  Effect on A23187-stimulated L-citrulline formation (endothelial NOS activity): significantly inhibited
[1]; DEA/NO 0.05 μM, 95% CI
  IC50: 560 µM
[1]; enzyme pre-incubated 5 minutes with 1 mM
  Reversal of sGC inhibition by 50-fold dilution: largely
[1]
  Emax of DEA/NO-stimulated sGC activity in presence of flavoring: 24±0.8 µmol cGMP x min-1 x mg-1

## C=CCc1ccc(O)c(OC)c1 [Eugenol, 2-Methoxy-4-(prop-2-en-1-yl)phenol]
NO synthase (NOS)
  Direct effect on NOS-catalyzed L-citrulline formation: neither eugenol nor cinnamaldehyde increased
[1]
  Emax of DEA/NO-stimulated sGC activity in presence of flavoring: 28±1.1 µmol cGMP x min-1 x mg-1
